Data: publication PMC5218480 (PLoS ONE, 2017)

Test system: MV-4-11 cells
Experiment: Gene expression microarray analysis (Affymetrix PrimeView) and GSEA
Format: cell-based, human
Parameters: RFU PODN (11730768_x_at) / Fold change /veh PODN (11730768_x_at) / RFU LINC00158 (11744669_a_at) / Fold change /veh LINC00158 (11744669_a_at) / RFU DUSP10 (11751237_a_at) / Fold change /veh DUSP10 (11751237_a_at) / RFU ID3 (11757404_x_at) / Fold change /veh ID3 (11757404_x_at) / RFU PLEKHG5 (11737974_s_at) / Fold change /veh PLEKHG5 (11737974_s_at) / RFU LRRC4B (11730491_at) / Fold change /veh LRRC4B (11730491_at) / RFU GIMAP4 (11747438_a_at) / Fold change /veh GIMAP4 (11747438_a_at) / RFU KRT8 (11758183_x_at) / Fold change /veh KRT8 (11758183_x_at) / RFU CNN1 (11734310_a_at) / Fold change /veh CNN1 (11734310_a_at) / RFU VPS37D (11726825_at) / Fold change /veh VPS37D (11726825_at) / RFU C10orf10 (11716522_x_at) / Fold change /veh C10orf10 (11716522_x_at) / RFU KIR2DL2 /// KIR2DL4 /// KIR2DL5A /// KIR2DL5B /// KIR2DS1 /// KIR2DS2 /// KIR2DS3 /// KIR2DS4 /// KIR3DL3 /// KIR3DL3 /// KIR3DS1 (11738374_at) / Fold change /veh KIR2DL2 /// KIR2DL4 /// KIR2DL5A /// KIR2DL5B /// KIR2DS1 /// KIR2DS2 /// KIR2DS3 /// KIR2DS4 /// KIR3DL3 /// KIR3DL3 /// KIR3DS1 (11738374_at) / RFU C1QL1 (11718748_at) / Fold change /veh C1QL1 (11718748_at) / RFU TMPRSS4 (11747572_a_at) / Fold change /veh TMPRSS4 (11747572_a_at) / RFU HAMP (11756126_x_at) / Fold change /veh HAMP (11756126_x_at) / RFU RNFT2 (11725882_a_at) / Fold change /veh RNFT2 (11725882_a_at) / RFU NR4A2 (11747474_a_at) / Fold change /veh NR4A2 (11747474_a_at) / RFU ABCC12 (11746883_a_at) / Fold change /veh ABCC12 (11746883_a_at) / RFU TMEM136 (11760407_x_at) / Fold change /veh TMEM136 (11760407_x_at) / RFU CLDN22 /// WWC2 (11732394_at) / Fold change /veh CLDN22 /// WWC2 (11732394_at) / RFU HLA-DPB1 (11760878_x_at) / Fold change /veh HLA-DPB1 (11760878_x_at) / RFU SPINT1 (11716480_a_at) / Fold change /veh SPINT1 (11716480_a_at) / RFU GAP43 (11754022_s_at) / Fold change /veh GAP43 (11754022_s_at) / RFU A4GNT (11735810_at) / Fold change /veh A4GNT (11735810_at) / RFU PRB3 (11715151_x_at) / Fold change /veh PRB3 (11715151_x_at) / RFU TUBB4B (11761932_at) / Fold change /veh TUBB4B (11761932_at) / RFU CAPN14 (11732068_a_at) / Fold change /veh CAPN14 (11732068_a_at) / RFU TMCC2 (11721928_a_at) / Fold change /veh TMCC2 (11721928_a_at) / RFU IRGQ (11745062_a_at) / Fold change /veh IRGQ (11745062_a_at) / RFU FAM174B (11720279_a_at) / Fold change /veh FAM174B (11720279_a_at) / RFU TMPRSS4 (11748680_a_at) / Fold change /veh TMPRSS4 (11748680_a_at) / RFU FAM212B (11763350_a_at) / Fold change /veh FAM212B (11763350_a_at) / RFU PLEKHG5 (11743358_a_at) / Fold change /veh PLEKHG5 (11743358_a_at) / RFU ZSCAN30 (11745921_a_at) / Fold change /veh ZSCAN30 (11745921_a_at) / RFU CMKLR1 (11741424_a_at) / Fold change /veh CMKLR1 (11741424_a_at) / RFU LOC101060620 /// MAPK8IP1 (11723275_at) / Fold change /veh LOC101060620 /// MAPK8IP1 (11723275_at) / RFU SPTSSB (11747773_x_at) / Fold change /veh SPTSSB (11747773_x_at) / RFU PRSS12 (11739890_at) / Fold change /veh PRSS12 (11739890_at) / RFU BIN1 (11741810_x_at) / Fold change /veh BIN1 (11741810_x_at) / RFU WNT11 (11732464_a_at) / Fold change /veh WNT11 (11732464_a_at) / RFU C10orf10 (11716521_a_at) / Fold change /veh C10orf10 (11716521_a_at) / RFU C5orf56 (11738089_at) / Fold change /veh C5orf56 (11738089_at) / RFU CYB561 (11721691_x_at) / Fold change /veh CYB561 (11721691_x_at) / RFU ANKRD19P (11752326_a_at) / Fold change /veh ANKRD19P (11752326_a_at) / RFU OR2T12 /// OR2T33 /// OR2T8 (11738714_s_at) / Fold change /veh OR2T12 /// OR2T33 /// OR2T8 (11738714_s_at) / RFU VCAN (11748164_a_at) / Fold change /veh VCAN (11748164_a_at) / RFU JSRP1 (11732532_at) / Fold change /veh JSRP1 (11732532_at) / RFU KRTAP10-11 (11738290_x_at) / Fold change /veh KRTAP10-11 (11738290_x_at) / RFU MYO3A (11730013_a_at) / Fold change /veh MYO3A (11730013_a_at) / RFU EBF3 (11725865_a_at) / Fold change /veh EBF3 (11725865_a_at) / RFU CAMK2N1 (11719241_x_at) / Fold change /veh CAMK2N1 (11719241_x_at) / RFU C5orf56 (11738088_a_at) / Fold change /veh C5orf56 (11738088_a_at) / RFU OLFML3 (11715873_a_at) / Fold change /veh OLFML3 (11715873_a_at) / RFU LOC100653217 /// NTM (11731650_a_at) / Fold change /veh LOC100653217 /// NTM (11731650_a_at) / RFU MAPK11 (11762145_a_at) / Fold change /veh MAPK11 (11762145_a_at) / RFU FIZ1 (11724087_x_at) / Fold change /veh FIZ1 (11724087_x_at) / RFU OASL (11726364_x_at) / Fold change /veh OASL (11726364_x_at) / RFU SOX15 (11748057_x_at) / Fold change /veh SOX15 (11748057_x_at) / RFU CD79A (11719716_a_at) / Fold change /veh CD79A (11719716_a_at) / RFU HIST1H1D (11736915_at) / Fold change /veh HIST1H1D (11736915_at) / RFU CASKIN2 (11723855_a_at) / Fold change /veh CASKIN2 (11723855_a_at) / RFU LOC730098 (11760151_x_at) / Fold change /veh LOC730098 (11760151_x_at) / RFU OR4N2 (11742367_at) / Fold change /veh OR4N2 (11742367_at) / RFU PRRT2 (11749266_a_at) / Fold change /veh PRRT2 (11749266_a_at) / RFU SNX32 (11753110_a_at) / Fold change /veh SNX32 (11753110_a_at) / RFU CDHR5 (11726645_a_at) / Fold change /veh CDHR5 (11726645_a_at) / RFU RCAN1 (11760418_a_at) / Fold change /veh RCAN1 (11760418_a_at) / RFU FAM167A (11723789_a_at) / Fold change /veh FAM167A (11723789_a_at) / RFU FAM26E (11764081_at) / Fold change /veh FAM26E (11764081_at) / RFU ISYNA1 (11749810_s_at) / Fold change /veh ISYNA1 (11749810_s_at) / RFU ACY1 (11761880_at) / Fold change /veh ACY1 (11761880_at) / RFU 11764098_at / Fold change /veh 11764098_at / RFU SAMD14 (11745864_x_at) / Fold change /veh SAMD14 (11745864_x_at) / RFU NPB (11741838_a_at) / Fold change /veh NPB (11741838_a_at) / RFU TMPRSS6 (11731388_a_at) / Fold change /veh TMPRSS6 (11731388_a_at) / RFU KRTAP10-2 (11738614_at) / Fold change /veh KRTAP10-2 (11738614_at) / RFU ARHGAP8 /// PRR5-ARHGAP8 (11727945_x_at) / Fold change /veh ARHGAP8 /// PRR5-ARHGAP8 (11727945_x_at) / RFU KRTAP5-7 /// NADSYN1 (11734609_at) / Fold change /veh KRTAP5-7 /// NADSYN1 (11734609_at) / RFU RASL12 (11751679_a_at) / Fold change /veh RASL12 (11751679_a_at) / RFU CDKN2B (11736163_a_at) / Fold change /veh CDKN2B (11736163_a_at) / RFU PRF1 (11729649_at) / Fold change /veh PRF1 (11729649_at) / RFU, ZNF638 /// ZNF638-IT1 / Fold change vs veh, ZNF638 /// ZNF638-IT1 / RFU, PANK3 / Fold change vs veh, PANK3 / RFU, SH3YL1 / Fold change vs veh, SH3YL1 / RFU, ZEB2 / Fold change vs veh, ZEB2 / RFU, NRIP1 / Fold change vs veh, NRIP1 / RFU, PTTG1IP / Fold change vs veh, PTTG1IP / RFU, CAPN2 / Fold change vs veh, CAPN2 / RFU, MED14 / Fold change vs veh, MED14 / RFU, SNORA58 / Fold change vs veh, SNORA58 / RFU, C1orf63 / Fold change vs veh, C1orf63 / RFU, LRRFIP1 / Fold change vs veh, LRRFIP1 / RFU, NDUFAF7 / Fold change vs veh, NDUFAF7 / RFU, SLC12A2 / Fold change vs veh, SLC12A2 / RFU, IBTK / Fold change vs veh, IBTK / RFU, ESF1 / Fold change vs veh, ESF1 / Fold change vs veh, TMEM50B / RFU, TAOK1 / Fold change vs veh, TAOK1 / RFU, ACBD3 / Fold change vs veh, ACBD3 / RFU, TMA16 / Fold change vs veh, TMA16 / RFU, RWDD3 / Fold change vs veh, RWDD3 / RFU, BCAT1 / Fold change vs veh, BCAT1 / RFU, EDEM3 / Fold change vs veh, EDEM3 / RFU, TMEM33 / Fold change vs veh, TMEM33 / RFU, WDR75 / Fold change vs veh, WDR75 / RFU, AHCTF1 / Fold change vs veh, AHCTF1 / RFU, TFRC / Fold change vs veh, TFRC / RFU, ZDHHC17 / Fold change vs veh, ZDHHC17 / RFU, NOM1 / Fold change vs veh, NOM1 / RFU, ARL8B / Fold change vs veh, ARL8B / RFU, ZBTB11 / Fold change vs veh, ZBTB11 / RFU, TAMM41 / Fold change vs veh, TAMM41 / RFU, KIAA1704 /// LOC100996395 / Fold change vs veh, KIAA1704 /// LOC100996395 / RFU, ING1 / Fold change vs veh, ING1 / RFU, TRMT61B / Fold change vs veh, TRMT61B / RFU, FUBP3 / Fold change vs veh, FUBP3 / RFU, TP53 / Fold change vs veh, TP53 / RFU, TNKS2 / Fold change vs veh, TNKS2 / RFU, ZFP14 / Fold change vs veh, ZFP14 / RFU, ACTR2 / Fold change vs veh, ACTR2 / RFU, PPP3R1 / Fold change vs veh, PPP3R1 / RFU, PIK3R1 / Fold change vs veh, PIK3R1 / RFU, HNRNPA1 / Fold change vs veh, HNRNPA1 / RFU, RNF170 / Fold change vs veh, RNF170 / RFU, ZNF28 / Fold change vs veh, ZNF28 / RFU, RNGTT / Fold change vs veh, RNGTT / RFU, OGT / Fold change vs veh, OGT / RFU, BRD1 / Fold change vs veh, BRD1 / RFU, MARS / Fold change vs veh, MARS / RFU, ZNF655 / Fold change vs veh, ZNF655 / RFU, FAHD1 / Fold change vs veh, FAHD1 / RFU, BDP1 / Fold change vs veh, BDP1 / RFU, LRRCC1 / Fold change vs veh, LRRCC1 / RFU, ARID1A / Fold change vs veh, ARID1A / RFU, ZNF146 / Fold change vs veh, ZNF146 / RFU, ZNF330 / Fold change vs veh, ZNF330 / RFU, GPN3 / Fold change vs veh, GPN3 / RFU, C9orf123 / Fold change vs veh, C9orf123 / RFU, N4BP2L2 / Fold change vs veh, N4BP2L2 / RFU, ARFIP1 / Fold change vs veh, ARFIP1 / RFU, FAM179B / Fold change vs veh, FAM179B / RFU, BCL10 / Fold change vs veh, BCL10 / RFU, UHRF1BP1L / Fold change vs veh, UHRF1BP1L / RFU, BET1 / Fold change vs veh, BET1 / RFU, CNOT2 / Fold change vs veh, CNOT2 / RFU, ZNF268 / Fold change vs veh, ZNF268 / Fold change vs veh, ZNF507 / RFU, DGCR2 / Fold change vs veh, DGCR2 / RFU, WDSUB1 / Fold change vs veh, WDSUB1 / Fold change vs veh, HSP90B1 /// MIR3652 / RFU, ADSS / Fold change vs veh, ADSS / RFU, GK / Fold change vs veh, GK / RFU, ZNF148 / Fold change vs veh, ZNF148 / RFU, TAF9 / Fold change vs veh, TAF9 / RFU, SLC1A5 / Fold change vs veh, SLC1A5 / RFU, SLMO2 / Fold change vs veh, SLMO2 / RFU, ABCC4 / Fold change vs veh, ABCC4 / RFU, LOC101060439 /// RAP1B / Fold change vs veh, LOC101060439 /// RAP1B / RFU, RFX7 / Fold change vs veh, RFX7 / RFU, GTPBP10 / Fold change vs veh, GTPBP10 / RFU, CNEP1R1 / Fold change vs veh, CNEP1R1 / RFU, BIVM-ERCC5 /// ERCC5 / Fold change vs veh, BIVM-ERCC5 /// ERCC5 / RFU, ILF3 / Fold change vs veh, ILF3 / RFU 11762660_at / Fold change /veh 11762660_at / RFU VCAN (11757783_s_at) / Fold change /veh VCAN (11757783_s_at) / RFU DDX43 (11728927_at) / Fold change /veh DDX43 (11728927_at) / RFU KRT8 (11758188_x_at) / Fold change /veh KRT8 (11758188_x_at) / RFU NKD1 (11759106_at) / Fold change /veh NKD1 (11759106_at) / RFU SRD5A1 (11742802_a_at) / Fold change /veh SRD5A1 (11742802_a_at) / RFU TPSAB1 /// TPSB2 (11721975_s_at) / Fold change /veh TPSAB1 /// TPSB2 (11721975_s_at) / RFU GSTM3 (11746129_a_at) / Fold change /veh GSTM3 (11746129_a_at) / RFU IL23R (11737362_x_at) / Fold change /veh IL23R (11737362_x_at) / RFU TMEM51 (11727254_a_at) / Fold change /veh TMEM51 (11727254_a_at) / RFU PIWIL2 (11732686_x_at) / Fold change /veh PIWIL2 (11732686_x_at) / RFU ORM1 (11744905_x_at) / Fold change /veh ORM1 (11744905_x_at) / RFU CCDC152 (11743942_at) / Fold change /veh CCDC152 (11743942_at) / RFU ECM1 (11717891_a_at) / Fold change /veh ECM1 (11717891_a_at) / RFU IL23R (11748794_a_at) / Fold change /veh IL23R (11748794_a_at) / RFU TNFAIP8L3 (11732012_x_at) / Fold change /veh TNFAIP8L3 (11732012_x_at) / RFU MBOAT4 (11741988_at) / Fold change /veh MBOAT4 (11741988_at) / RFU 11764193_at / Fold change /veh 11764193_at / RFU TMEM53 (11763286_at) / Fold change /veh TMEM53 (11763286_at) / RFU MAGEB2 (11727129_at) / Fold change /veh MAGEB2 (11727129_at) / RFU TMEM200A (11744735_a_at) / Fold change /veh TMEM200A (11744735_a_at) / RFU CCDC152 (11751479_a_at) / Fold change /veh CCDC152 (11751479_a_at) / RFU FAM211A (11726209_a_at) / Fold change /veh FAM211A (11726209_a_at) / RFU RGS16 (11746705_a_at) / Fold change /veh RGS16 (11746705_a_at) / RFU VCAN (11755009_s_at) / Fold change /veh VCAN (11755009_s_at) / RFU RHOB (11743442_s_at) / Fold change /veh RHOB (11743442_s_at) / RFU RGS16 (11720943_a_at) / Fold change /veh RGS16 (11720943_a_at) / RFU RGS16 (11720944_at) / Fold change /veh RGS16 (11720944_at) / RFU, VPS4B / Fold change vs veh, VPS4B / RFU, CREB1 / Fold change vs veh, CREB1 / RFU, DNAJC13 / Fold change vs veh, DNAJC13 / RFU, GNAQ / Fold change vs veh, GNAQ / RFU, CDK5R1 / Fold change vs veh, CDK5R1 / RFU, ZRANB3 / Fold change vs veh, ZRANB3 / RFU, CUL4A / Fold change vs veh, CUL4A / RFU, CCNY / Fold change vs veh, CCNY / RFU, UFL1 / Fold change vs veh, UFL1 / RFU, COG3 / Fold change vs veh, COG3 / RFU, DIAPH2 / Fold change vs veh, DIAPH2 / RFU, SKA2 / Fold change vs veh, SKA2 / RFU, AFF3 / Fold change vs veh, AFF3 / RFU, LMF1 / Fold change vs veh, LMF1 / RFU, IPO11 / Fold change vs veh, IPO11 / RFU, DFFB / Fold change vs veh, DFFB / RFU, FOXP1 / Fold change vs veh, FOXP1 / RFU, CARD8 / Fold change vs veh, CARD8 / RFU, STRN3 / Fold change vs veh, STRN3 / RFU, ADK / Fold change vs veh, ADK / RFU, RASSF2 / Fold change vs veh, RASSF2 / RFU, WIPF1 / Fold change vs veh, WIPF1 / RFU, LARP1B / Fold change vs veh, LARP1B / RFU, RASA1 / Fold change vs veh, RASA1 / RFU, RB1 / Fold change vs veh, RB1 / RFU, PPFIA1 / Fold change vs veh, PPFIA1 / RFU, MAT2A / Fold change vs veh, MAT2A / RFU, CCT5 / Fold change vs veh, CCT5 / RFU, WDR92 / Fold change vs veh, WDR92 / RFU, CUX1 / Fold change vs veh, CUX1 / RFU, TTC7A / Fold change vs veh, TTC7A / RFU, TMEM135 / Fold change vs veh, TMEM135 / RFU, DEPTOR / Fold change vs veh, DEPTOR / RFU, CPM / Fold change vs veh, CPM / RFU, DNAJB6 / Fold change vs veh, DNAJB6 / RFU, CACNA2D3 / Fold change vs veh, CACNA2D3 / RFU, DTX4 / Fold change vs veh, DTX4 / RFU, TFCP2 / Fold change vs veh, TFCP2 / RFU, GMCL1 /// GMCL1P1 / Fold change vs veh, GMCL1 /// GMCL1P1 / RFU, AEBP2 / Fold change vs veh, AEBP2 / RFU, SNHG1 /// SNORD22 /// SNORD25 /// SNORD26 /// SNORD27 /// SNORD28 /// SNORD29 /// SNORD31 / Fold change vs veh, SNHG1 /// SNORD22 /// SNORD25 /// SNORD26 /// SNORD27 /// SNORD28 /// SNORD29 /// SNORD31 / Fold change (Aza/veh), C12orf56 (ProbeSet 11735607_a_at) / Fold change (ACY-1035/veh), C12orf56 (ProbeSet 11735607_a_at) / Fold change (Aza/veh), FGFR1OP (ProbeSet 11751329_s_at) / Fold change (ACY-1035/veh), FGFR1OP (ProbeSet 11751329_s_at) / Fold change (Aza/veh), VPS36 (ProbeSet 11739960_a_at) / Fold change (ACY-1035/veh), VPS36 (ProbeSet 11739960_a_at) / RFU SYPL1 (11715823_x_at) / Fold change /veh SYPL1 (11715823_x_at) / RFU IGFBP7 (11715501_s_at) / Fold change /veh IGFBP7 (11715501_s_at) / RFU REEP3 (11722064_at) / Fold change /veh REEP3 (11722064_at) / RFU IGLL1 (11728026_x_at) / Fold change /veh IGLL1 (11728026_x_at): dose or concentration left out as unconfirmed
Settings: MV-4-11 cells, 48 hours

Nc1ccc(-c2cccs2)cc1NC(=O)c1ccc2c(c1)cc(C1CC1)n2CCN1CCOCC1 [ACY-1035]
Fold change /veh PODN (11730768_x_at): 1.05
